{"source": "patent US9387246B2", "about": "“Treatment methods for rheumatoid arthritis” (priority 2013, dated 2016)", "key": {"[1]": {"tested_on": "Rheumatoid arthritis patients", "assay": "Change in VECTRA DA Score after treatment (Example 2)", "format": "in vivo, human", "conditions": "Patient 6; treatment August 2012-June 2013; score February 2013", "description": "VECTRA® DA test is a multi-biomarker disease activity (MBDA) blood test sold by Crescendo Bioscience. The test provides a quantitative assessment of rheumatoid arthritis disease activity in patients by using twelve protein biomarkers—Vascular Cell Adhesion Molecule 1 (VCAM-1), Epidermal Growth Factor (EGF), Vascular Endothelial Growth Factor A (VEGF-A), Interleukin-6 (IL-6), Tumor Necrosis Factor Receptor Type 1 (TNFR1), Matrix Metalloproteinase-1 (MMP-1), Matrix Metalloproteinase-3 (MMP-3), YKL-40, Leptin, Resistin, Serum Amyloid A (SAA), and C-Reactive Protein (CRP). The twelve biomarkers in VECTRA® DA test are relevant to key aspects of the pathophysiology of RA. Li et al., Curr. Med. Res. & Opin. 29(1): 85-92 (2013). The test measures the concentrations of the biomarkers and provides the concentrations and percentile (RA percentile) value for each biomarker. […]\n(§1) The patients were treated with the selected treatment methods for at least five months and the post-treatment biomarker levels and VECTRA DA Score were determined by VECTRA® DA test along with CRP level and ESR. The change is VECTRA DA Score, CRP level and ESR was determined to determine the change in disease activity and effectiveness of the selected treatment method."}, "[2]": {"tested_on": "Rheumatoid arthritis patients", "assay": "Treatment outcome (effectiveness, clinical course) of treatment methods (Example 2)", "format": "in vivo, human", "conditions": "Patient 9; ACTEMRA from May 2012 not algorithm-selected; MTX added October 2012, based on ESR and CRP level", "protocol": "as §1"}, "[3]": {"tested_on": "Rheumatoid arthritis patients", "assay": "Change in VECTRA DA Score after treatment, longer duration (Example 3)", "format": "in vivo, human", "protocol": "Sixteen rheumatoid arthritis patients were selected for treatment by treatment methods that were selected using the algorithm disclosed herein. Some patients were the same as the patients discussed under Example 2. Example 3, however, tracks patients' responses to treatment for a longer duration and uses VECTRA DA Score to determine effectiveness of the treatment.\nVECTRA® DA test was conducted for each patient to determine serum levels of the all the biomarkers and VECTRA DA Score in each patient before treatment. The collection of patients closely resembles the random patient population available nationwide as shown by a comparison of the distribution of VECTRA DA Scores in FIG. 6, as noted under Example 2.\nThe patients were treated with the selected treatment methods and the post-treatment biomarker levels and VECTRA DA Score were determined by VECTRA® DA test. The change is VECTRA DA Score was determined to determine the change in disease activity and effectiveness of the selected treatment method.\nThe treatment method (one method or a combination of methods) was determined to be effective when the post-treatment disease activity was lower than the pre-treatment disease activity in the patient: when VECTRA DA Score was lower than the pre-treatment VECTRA DA Score. Specifically, the treatment method was determined to be effective when the post-treatment disease activity was at least 20% lower than the pre-treatment disease activity, or when the VECTRA DA Score is decreased to a lower disease activity level after the treatment (i.e., from high to moderate, or high to low, or moderate to low)."}, "[4]": {"tested_on": "Rheumatoid arthritis patients", "format": "in vivo, human", "description": "A treatment method administered to a patient may be a combination of one or more treatment methods."}, "[5]": {"tested_on": "Rheumatoid arthritis patients", "assay": "VECTRA DA test: serum levels of biomarkers, % elevation over control (InFoRM study)", "format": "in vivo, human", "description": "VECTRA® DA test is a multi-biomarker disease activity (MBDA) blood test sold by Crescendo Bioscience. The test provides a quantitative assessment of rheumatoid arthritis disease activity in patients by using twelve protein biomarkers—Vascular Cell Adhesion Molecule 1 (VCAM-1), Epidermal Growth Factor (EGF), Vascular Endothelial Growth Factor A (VEGF-A), Interleukin-6 (IL-6), Tumor Necrosis Factor Receptor Type 1 (TNFR1), Matrix Metalloproteinase-1 (MMP-1), Matrix Metalloproteinase-3 (MMP-3), YKL-40, Leptin, Resistin, Serum Amyloid A (SAA), and C-Reactive Protein (CRP). The twelve biomarkers in VECTRA® DA test are relevant to key aspects of the pathophysiology of RA. Li et al., Curr. Med. Res. & Opin. 29(1): 85-92 (2013). The test measures the concentrations of the biomarkers and provides the concentrations and percentile (RA percentile) value for each biomarker.\nThe VECTRA DA MBDA test uses Meso Scale Discovery (MSD, Gaithersburg, Md., USA) sandwich immunoassay electrochemiluminescent technology to measure biomarker levels. Eastman et al., J. of Pharmaceutical and Biomedical Analysis 70: 415-424 (2012). In the immunoassay, capture antibodies are spotted on carbon electrodes in a planar array and detection antibodies are labeled with an electrochemiluminescent ruthenium reporter. Id. Upon electrical stimulation, light is produced from reporter molecules bound to the electrode to determine biomarker concentration."}, "VCAM-1": {"tested_on": "VCAM-1", "conditions": "literature 1990-2012, ACR abstracts 2006-2013; cited from earlier work"}, "VEGF-A": {"tested_on": "VEGF-A", "conditions": "literature 1990-2012, ACR abstracts 2006-2013; cited from earlier work"}, "IL-6": {"tested_on": "IL-6", "conditions": "literature 1990-2012, ACR abstracts 2006-2013; cited from earlier work"}, "TNFR1": {"tested_on": "TNFR1", "parameters": "key: Y: biomarkers that are known to be positively affected by a treatment method (i.e., biomarkers that are known to have a favorable response to a treatment method); N: biomarkers that are not known to be positively affected by a treatment method (i.e., biomarkers that are known to have an unfavorable response to a treatment method); biomarkers that are known to be positively affected by a ORENCIA, the brand name of Atabacept", "conditions": "literature 1990-2012, ACR abstracts 2006-2013; cited from earlier work"}, "MMP-1": {"tested_on": "MMP-1", "conditions": "literature 1990-2012, ACR abstracts 2006-2013; cited from earlier work"}, "MMP-3": {"tested_on": "MMP-3", "conditions": "literature 1990-2012, ACR abstracts 2006-2013; cited from earlier work"}, "YKL-40": {"tested_on": "YKL-40", "conditions": "literature 1990-2012, ACR abstracts 2006-2013; cited from earlier work"}, "Leptin": {"tested_on": "Leptin", "conditions": "literature; Leptin usable as biomarker only in patients with 15% or less body fat; cited from earlier work"}, "Resistin": {"tested_on": "Resistin", "conditions": "literature 1990-2012, ACR abstracts 2006-2013; cited from earlier work"}, "SAA": {"tested_on": "SAA", "conditions": "literature 1990-2012, ACR abstracts 2006-2013; cited from earlier work"}, "CRP": {"tested_on": "CRP", "conditions": "literature 1990-2012, ACR abstracts 2006-2013; cited from earlier work"}}, "note": "Read-outs that look alike come from different tables or passages of the source."}
{"substance": "Tocilizumab [TOCL]", "values": [{"measurement": "VECTRA DA Score - Decreased by", "setting": "[1]", "value": "Decreased by 24"}, {"measurement": "Treatment Outcome", "setting": "[2]", "value": "Not effective"}, {"measurement": "Arthritis activity class of VECTRA DA Score", "setting": "[3]; Patient 6, February 2013", "value": "high (a VECTRA DA Score of >44 reflects high disease activity)"}, {"measurement": "Arthritis activity class of VECTRA DA Score", "setting": "[3]; Patient 6, October 2012", "value": "high (a VECTRA DA Score of >44 reflects high disease activity)"}, {"measurement": "VECTRA DA Score", "setting": "[3]; Patient 6, October 2012, ACTEMRA 4 mg/kg", "value": 54}, {"measurement": "Treatment Outcome", "setting": "[4]; Patient 6", "value": "Effective, based"}, {"measurement": "Conventional markers of inflammation - ESR and CRP level", "setting": "[4]; Patient 6, while on ACTEMRA", "value": "normalized"}, {"measurement": "Adverse reaction", "setting": "[4]; in vivo", "value": "allergic reaction"}, {"measurement": "Toxicity for which the treatment was excluded", "setting": "[4]; in vivo", "value": "bone marrow"}, {"measurement": "IL-6 elevated level", "setting": "[5]; Patient 6, February 2013", "value": ">99", "unit": "%"}, {"measurement": "MMP-3 elevated level", "setting": "[5]; Patient 6, February 2013", "value": 61, "unit": "%"}, {"measurement": "Resistin elevated level", "setting": "[5]; Patient 6, February 2013", "value": 70, "unit": "%"}, {"measurement": "IL-6 elevated level", "setting": "[5]; Patient 6, October 2012", "value": ">99", "unit": "%"}, {"measurement": "MMP-3 elevated level", "setting": "[5]; Patient 6, October 2012", "value": 88, "unit": "%"}, {"measurement": "Resistin elevated level", "setting": "[5]; Patient 6, October 2012", "value": 57, "unit": "%"}, {"measurement": "TNF-R1 elevated level", "setting": "[5]; Patient 6, October 2012", "value": 45, "unit": "%"}, {"measurement": "VCAM-1 positively affected by treatment method", "setting": "VCAM-1", "value": "N"}, {"measurement": "VEGF-A positively affected by treatment method", "setting": "VEGF-A", "value": "Y"}, {"measurement": "IL-6 positively affected by treatment method", "setting": "IL-6", "value": "Y"}, {"measurement": "TNFR1 positively affected by treatment method", "setting": "TNFR1", "value": "N"}, {"measurement": "MMP-1 positively affected by treatment method", "setting": "MMP-1", "value": "Y"}, {"measurement": "MMP-3 positively affected by treatment method", "setting": "MMP-3", "value": "Y"}, {"measurement": "YKL-40 positively affected by treatment method", "setting": "YKL-40", "value": "Y"}, {"measurement": "Leptin positively affected by treatment method", "setting": "Leptin", "value": "N"}, {"measurement": "Resistin positively affected by treatment method", "setting": "Resistin", "value": "N"}, {"measurement": "SAA positively affected by treatment method", "setting": "SAA", "value": "Y"}, {"measurement": "CRP positively affected by treatment method", "setting": "CRP", "value": "Y"}]}
